{
  "source": "ChEMBL document CHEMBL1136608",
  "about": "“Azaindoles: moderately basic P1 groups for enhancing the selectivity of thrombin inhibitors” (Bioorg Med Chem Lett, 2003)",
  "key": {"Serine protease 1": {"biological_target": "Serine protease 1 (Homo sapiens, UniProt P07477)", "sequence (P07477 whole entry)": "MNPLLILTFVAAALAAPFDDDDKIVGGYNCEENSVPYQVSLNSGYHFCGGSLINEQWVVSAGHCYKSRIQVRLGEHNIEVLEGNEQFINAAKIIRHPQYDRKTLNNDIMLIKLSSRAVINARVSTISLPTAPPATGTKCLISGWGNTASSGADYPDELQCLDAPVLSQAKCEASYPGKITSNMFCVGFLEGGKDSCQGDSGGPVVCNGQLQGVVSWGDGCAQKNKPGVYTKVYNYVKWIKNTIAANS", "assay": "Inhibition of Trypsin"}, "Canis familiaris": {"test_system": "Canis familiaris", "assay": "Cmax in dog after oral administration at 1 mg/kg; Below the level of quantitation", "type": "ADME, organism-based, Canis lupus familiaris", "design": "dose 1 mg/kg, route oral", "details": "in vivo"}, "Homo sapiens": {"organism": "Homo sapiens", "assay": "In vitro concentration required to double the human activated partial thromboplastin time (2x APTT)", "type": "functional"}, "[1]": {"assay": "Cmax in dog after oral administration at 1 mg/kg", "type": "ADME, organism-based, Canis lupus familiaris", "design": "dose 1 mg/kg, route oral", "details": "in vivo"}, "[2]": {"assay": "Area under curve was determined in dog after oral administration at 1 mg/kg", "type": "ADME, organism-based, Canis lupus familiaris", "design": "dose 1 mg/kg, route oral", "details": "in vivo"}, "Prothrombin": {"biological_target": "Prothrombin (Homo sapiens, UniProt P00734)", "assay": "Inhibition of Thrombin"}, "[3]": {"assay": "Half-life in dog after oral administration at 1 mg/kg", "type": "ADME, organism-based, Canis lupus familiaris", "design": "dose 1 mg/kg, route oral", "details": "in vivo"}},
  "data": [
    {"molecule": "Cc1cnc(NCCc2ccccn2)c(=O)n1CC(=O)NCc1ccc2[nH]ccc2n1", "values": [
      {"measurement": "Ki", "setting": "Serine protease 1", "value": "> 1000", "unit": "µM"},
      {"measurement": "Cmax", "setting": "Canis familiaris", "value": "Below the level of quantitation"},
      {"measurement": "Concentration", "setting": "Homo sapiens", "value": 0.8, "unit": "µM"}
    ]},
    {"molecule": "Cc1cnc(NCCc2ccccn2)c(=O)n1CC(=O)NCc1c[nH]c2nccc-2c1", "values": [
      {"measurement": "Concentration", "setting": "Homo sapiens", "value": 0.95, "unit": "µM"}
    ]},
    {"molecule": "Cc1cnc(NCCc2ccccn2)c(=O)n1CC(=O)NCc1cnc2[nH]ccc2c1", "values": [
      {"measurement": "Ki", "setting": "Serine protease 1", "value": 140, "unit": "µM"},
      {"measurement": "Cmax", "setting": "[1]", "value": 2100, "unit": "nM"},
      {"measurement": "AUC", "setting": "[2]", "value": 9.1, "unit": "µM·h"},
      {"measurement": "Ki", "setting": "Prothrombin", "value": 0.0066, "unit": "µM"},
      {"measurement": "half-life", "setting": "[3]", "value": 2.42, "unit": "h"}
    ]},
    {"molecule": "Cc1cnc(NCCc2ccccn2)c(=O)n1CC(=O)NCc1ccc2[nH]ccc2c1", "values": [
      {"measurement": "Ki", "setting": "Serine protease 1", "value": 290, "unit": "µM"}
    ]},
    {"molecule": "Cc1cnc(NCCc2ccccn2)c(=O)n1CC(=O)NCc1cc2cc[nH]c2cn1", "values": [
      {"measurement": "Ki", "setting": "Serine protease 1", "value": 200, "unit": "µM"},
      {"measurement": "Cmax", "setting": "[1]", "value": 180, "unit": "nM"},
      {"measurement": "AUC", "setting": "[2]", "value": 0.17, "unit": "µM·h"},
      {"measurement": "Concentration", "setting": "Homo sapiens", "value": 0.4, "unit": "µM"}
    ]},
    {"molecule": "Cc1cnc(NCCc2ccccc2)c(=O)n1CC(=O)NCc1ccc2[nH]cnc2c1", "values": [
      {"measurement": "Ki", "setting": "Serine protease 1", "value": 2, "unit": "µM"}
    ]},
    {"molecule": "Cc1cnc(NCCc2ccccc2)c(=O)n1CC(=O)NCc1ccn2ccnc2c1", "values": [
      {"measurement": "Ki", "setting": "Serine protease 1", "value": 120, "unit": "µM"},
      {"measurement": "Ki", "setting": "Prothrombin", "value": 0.27, "unit": "µM"}
    ]},
    {"molecule": "Cc1cnc(NCCc2ccccc2)c(=O)n1CC(=O)NCc1ccc2cc[nH]c2c1", "values": [
      {"measurement": "Ki", "setting": "Serine protease 1", "value": "> 100", "unit": "µM"},
      {"measurement": "Ki", "setting": "Prothrombin", "value": 0.83, "unit": "µM"}
    ]},
    {"molecule": "Cc1cnc(NCCc2ccccc2)c(=O)n1CC(=O)NCc1ccc2nccn2c1", "values": [
      {"measurement": "Ki", "setting": "Serine protease 1", "value": 100, "unit": "µM"},
      {"measurement": "Ki", "setting": "Prothrombin", "value": 0.14, "unit": "µM"}
    ]},
    {"molecule": "Cc1nc(N)ccc1CNC(=O)Cn1c(C)cnc(NCCc2ccccc2)c1=O", "note": "[L-375378]", "values": [
      {"measurement": "Cmax", "setting": "[1]", "value": 5370, "unit": "nM"},
      {"measurement": "AUC", "setting": "[2]", "value": 23.1, "unit": "µM·h"},
      {"measurement": "Concentration", "setting": "Homo sapiens", "value": 0.41, "unit": "µM"},
      {"measurement": "half-life", "setting": "[3]", "value": 3.18, "unit": "h"}
    ]},
    {"molecule": "Cc1cnc(NCCc2ccccc2)c(=O)n1CC(=O)NCc1ccc2nccn2c1C", "values": [
      {"measurement": "Ki", "setting": "Serine protease 1", "value": 6.8, "unit": "µM"}
    ]},
    {"molecule": "Cc1cnc(NCCc2ccccc2)c(=O)n1CC(=O)NCc1ccc2[nH]ccc2n1", "values": [
      {"measurement": "Ki", "setting": "Serine protease 1", "value": "> 100", "unit": "µM"}
    ]},
    {"molecule": "Cc1cnc(NCCc2ccccc2)c(=O)n1CC(=O)NCc1cnc2[nH]ccc2c1", "values": [
      {"measurement": "Ki", "setting": "Serine protease 1", "value": "> 100", "unit": "µM"}
    ]},
    {"molecule": "Cc1cnc(NCCc2ccccc2)c(=O)n1CC(=O)NCc1ccc2[nH]ccc2c1", "values": [
      {"measurement": "Ki", "setting": "Serine protease 1", "value": "> 100", "unit": "µM"}
    ]},
    {"molecule": "Cc1cnc(NCCc2ccccc2)c(=O)n1CC(=O)NCc1cc2cc[nH]c2cn1", "values": [
      {"measurement": "Ki", "setting": "Serine protease 1", "value": 95, "unit": "µM"},
      {"measurement": "Cmax", "setting": "[1]", "value": 2690, "unit": "nM"},
      {"measurement": "AUC", "setting": "[2]", "value": 15.2, "unit": "µM·h"},
      {"measurement": "Concentration", "setting": "Homo sapiens", "value": 2.63, "unit": "µM"},
      {"measurement": "half-life", "setting": "[3]", "value": 3.6, "unit": "h"}
    ]}
  ]
}
